Laboratory results reported in patent US7452865B2, “Antagonistic analogs of GH RH (2003)” (The Administrare's of the Tulane Educational Fund, priority 2004, dated 2008).
Marks after values point to notes of the source that are not given here. Square brackets hold non-standard residues; d marks the D form. Peptide text beside a SMILES is read from it. * marks the point of attachment. Phe(4-Cl) = N[C@@H](Cc1ccc(Cl)cc1)C(=O)O; hArg = N=C(N)NCCCC[C@H](N)C(=O)O; Nle = CCCC[C@H](N)C(=O)O; Abu = CC[C@H](N)C(=O)O; PhAc = O=C(Cc1ccccc1)*

Columns and labels:
IGF-I [1] = experiment: PC-3 xenografts, Experiment 4: serum IGF-I (RIA); format: in vivo, nude mice; details: 5 μg/day s.c., 28 days; for Serum IGF-I (% inhibition): vs control
Source text: (§1) For the measurement of GH and IGF-I levels in the serum, as well as IGF-I and IGF-II concentrations in the cytosol fraction of tumors, blood samples and tumor samples were collected and processed as described (Braczkowski R, Schally A V, Plonowski A, Varga J L, Groot K, Krupa M, Armatis P, Cancer 95: 1735-1745, 2002), hereby incorporated by reference. Briefly, blood samples are centrifuged to separate the serum, tumors are homogenized and centrifuged to separate the cytosol fraction. Serum GH is then measured by the double-antibody RIA method. Before measurement by RIA, IGF-I and IGF-II are extracted from serum and cytosol fractions using an acid-ethanol cryoprecipitation method that eliminates most of the IGF binding proteins, which can interfere with the RIA. IGF-I concentration is measured by RIA using IGF-I as a standard and goat anti-IGF-I antibody (both from DSL Inc., Webster, Tex.). IGF-II concentration is measured by RIA using human recombinant IGF-II (Bachem) as a standard and anti-IGF-II monoclonal antibody (Amano International Enzyme, Troy, Va.).
(§2) Male nude mice were implanted s.c. with 3 mm^3 pieces of PC-3 human hormone-independent prostate cancer tissue on both flanks. When tumors reached a volume of approximately 65 mm^3, the mice were divided into 7 experimental groups with 8 to 9 animals in each group and received single daily injections for 28 days as follows: 1. Control (vehicle solution); 2. JV-1-38 (10 μg/day s.c.); 3. Peptide 35 (10 μg/day s.c.); 4. Peptide 36 (10 μg/day s.c.); 5. Peptide 37 (10 μd/day s.c.); 6. Peptide 39 (10 μg/day s.c.); 7. Peptide 41 (10 μg/day s.c.). Tumor volumes were measured twice a week. The experiment was ended on day 28 by sacrificing the mice under Isofurane anesthesia. Resulting tumors were cleaned, weighed, and snapfrozen until further analyses. Trunk blood was collected from the abdominal aorta and serum was separated for RIA measurement of IGF-I. Statistical analyses of the measurement results were done by ANOVA followed by Fisher test; data are presented as the means±S.E.
(§3) All experimental details of Experiment 4 are the same as for Experiment 3, with the following difference. When tumors reached a volume of approximately 55 mm^3, the mice were divided into 5 experimental groups with 8 to 9 animals in each group and received single daily injections for 28 days as follows: 1. Control (vehicle solution); 2. Peptide 80 (5 μg/day s.c.); 3. Peptide 86 (5 μg/day s.c.); 4. Peptide 95 (5 μg/day s.c.); 5. Peptide 96 (5 μg/day s.c.). Further details of Experiment 4 are the same as for Experiment 3.

[2] = test system: PC-3 human prostate cancer xenografts; experiment: PC-3 xenografts in nude mice, Experiment 4: tumor growth; format: in vivo; details: for Tumor volume (mm^3) Final / Tumor volume doubling time / Tumor weight / Tumor volume Final (% inhibition) / Tumor weight (% inhibition): 5 μg/day s.c., 28 days; for Tumor volume Final (% inhibition) / Tumor weight (% inhibition): vs control; for Tumor volume (mm^3) Initial: at start of treatment
Protocol: as §2, §3

[3] = test system: GH-RH receptor isoforms on membrane fractions of human PC-3 prostate tumors; format: binding; details: general statement
Summary of the method: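 Competitive displacement of [^125I]JV-1-42 from crude membranes of human PC-3 prostate tumours grown as nude-mouse xenografts, with unlabelled peptides at 10^−12 to 10^−6 M. Bound radioactivity in the centrifuged pellet gamma-counted; Ki from Munson–Rodbard analysis. Relative affinity = Ki of reference peptide (JV-1-36 or JV-1-38) / Ki of test antagonist.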

IGF-I [4] = experiment: PC-3 xenografts, Experiment 1: serum IGF-I (RIA); format: in vivo, nude mice; details: 10 μg/day s.c., 28 days
Source text: as §1
(§4) Male nude mice were implanted s.c. with 3 mm^3 pieces of PC-3 human hormone-independent prostate cancer tissue on both flanks. When tumors reached a volume of approx. 50 mm^3, the mice were divided into 5 experimental groups with 7 to 8 animals in each group and received single daily injections for 28 days as follows: 1. Control (vehicle solution); 2. JV-1-38 (10 μg/day s.c.); 3 Peptide 31 (10 μg/day s.c.); 4. Peptide 67 (10 μg/day s.c.); 5. Peptide 62 (10 μg/day s.c.). Tumor volumes were measured twice a week. The experiment was ended on day 29 by sacrificing the mice under Isoflurane anesthesia. Resulting tumors were cleaned, weighed, and snap-frozen until further analyses. Trunk blood was collected from the abdominal aorta and serum was separated for RIA measurement of IGF-I. Statistical analyses of the measurement results were done by two-tailed t-test; data are presented as the means±S.E.

[5] = test system: PC-3 human prostate cancer xenografts; experiment: PC-3 xenografts in nude mice, Experiment 1: tumor growth; format: in vivo
Protocol: as §4

[6] = test system: hGH-RH(1-29)NH2 induced GH release; experiment: Inhibition of GH release in superfused rat pituitary system; format: cell-based
Summary of the method: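 Dispersed rat pituitary cells in superfusion were preincubated 9 min with analog at various concentrations, then stimulated with 1 nM hGH-RH(1-29)NH2 for 3 min, repeated at 30, 60, 90, 120 min to gauge duration. GH measured by double-antibody RIA; net integrated responses expressed as percent of the initial 1 nM GH-RH response.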

[7] = test system: H-69 human SCLC xenografts; experiment: H-69 human SCLC xenografts in nude mice: tumor growth; format: in vivo
Protocol: Male nude mice were implanted s.c. with 3 mm^3 pieces of H-69 human SCLC tissue. When tumors reached a volume of approx. 80 mm^3 the mice were divided into 4 experimental groups of 7-8 animals each and received the following treatment for 4 weeks: group I (control), vehicle solution; group 2, Peptide 67 (10 μg/day s.c.); group 3, Peptide 31 (10 μg/day s.c.); group 4, Peptide 72 (10 μg/day s.c.). Tumor volumes were recorded twice a week. At the end of treatment, mice were anesthetized with isoflurane, killed by decapitation, and tumors were excised and weighed. Data are presented as means±S.E. Data were evaluated by one way ANOVA and the Student-Newman-Keuls test.

[8] = 10 μg/day s.c., 28 days, vs control

| Compound | Serum IGF-I (IGF-I [1]) | Serum IGF-I (% inhibition) (IGF-I [1]) | Tumor volume (mm^3) Final [2] | Tumor volume doubling time [2] | Tumor weight [2] | Tumor volume Final (% inhibition) [2] | Tumor weight (% inhibition) [2] | Tumor volume (mm^3) Initial [2] | binding affinities to the tumoral receptors for GH-RH (in words) [3] | also measured |
| --- | --- | --- | --- | --- | --- | --- | --- | --- | --- | --- |
| [CH3(CH2)6CO-Tyr^1, D-Arg^2, Phe(pCl)^6, Ala^8, His^9, Tyr(Et)^10, His^11, Abu^15, His^20, Nle^27, D-Arg^28, Har^29]hGH-RH(1-29)NH2 [Peptide 86] | 118 ± 8.94 ng/mL | 28% | 397 ± 71.8* mm^3 | 12.1 ± 1.40 days | 643 ± 94.9 mg | 68% | 56% | 56.1 ± 8.67 mm^3 | extremely high binding affinities |  |
| CCCC[C@H](NC(=O)[C@@H](NC(=O)[C@H](CC(=O)O)NC(=O)[C@H](CCC(N)=O)NC(=O)[C@H](CC(C)C)NC(=O)[C@H](CC(C)C)NC(=O)[C@H](CCCCN)NC(=O)[C@H](CCCNC(=N)N)NC(=O)[C@H](C)NC(=O)[C@H](CO)NC(=O)[C@H](CC(C)C)NC(=O)[C@H](CCC(N)=O)NC(=O)[C@H](CC)NC(=O)[C@H](CC(C)C)NC(=O)[C@@H](NC(=O)[C@H](CCCCN)NC(=O)[C@H](Cc1c[nH]cn1)NC(=O)[C@H](Cc1ccc(OC)cc1)NC(=O)[C@H](CCCCNC(=N)N)NC(=O)[C@H](CC(N)=O)NC(=O)[C@@H](NC(=O)[C@H](Cc1ccc(Cl)cc1)NC(=O)[C@@H](NC(=O)[C@H](C)NC(=O)[C@H](CC(=O)O)NC(=O)[C@@H](CCCNC(=N)N)NC(=O)[C@H](Cc1ccc(O)cc1)NC(=O)Cc1ccccc1)[C@@H](C)CC)[C@@H](C)O)C(C)C)[C@@H](C)CC)C(=O)N[C@H](CCCNC(=N)N)C(=O)N[C@@H](CCCCNC(=N)N)C(N)=O [Peptide 62, [PhAc-Tyr^1, D-Arg^2, Phe(pCl)^6, Har^9, Tyr(Me)^10, His^11, Abu^15, Nle^27, D-Arg^28, Har^29]hGH-RH(1-29)NH2] (PhAc-Y[dR]DAI[Phe(4-Cl)]TN[hArg]Y(Me)HKVL[Abu]QLSARKLLQDI[Nle][dR][hArg]-NH2) |  |  |  |  |  |  |  |  | extremely high binding affinities | Serum IGF-I (IGF-I [4]): 141 ± 8.86 ng/mL; Serum IGF-I (% inhibition) (IGF-I [4]; vs control): (5%); Tumor volume (mm^3) Final ([5]; 10 μg/day s.c., 28 days): 215 ± 50.4 mm^3; Tumor volume doubling time ([5]; 10 μg/day s.c., 28 days): 18.4 ± 4.96 days; Tumor volume Final (% inhibition) [5, 8]: (57%); Tumor weight (% inhibition) [5, 8]: (47%); inhibitory effect on the growth of PC-3 tumors (in words) ([5]; 10 μg/day s.c., compared with JV-1-38): stronger inhibitory effect on the growth of PC-3 tumors than the reference peptide JV-1-38; Tumor volume (mm^3) Initial ([5]; at start of treatment): 56.1 ± 18.2 mm^3; GH response (% of control) 0 min ([6]; antagonist 30 nM, 1 nM hGH-RH(1-29)NH2 at 0 min): 20 % of control; GH response (% of control) 30 min ([6]; antagonist 30 nM, 1 nM hGH-RH(1-29)NH2 at 30 min): 16 % of control; GH response (% of control) 60 min ([6]; antagonist 30 nM, 1 nM hGH-RH(1-29)NH2 at 60 min): 14 % of control; GH response (% of control) 90 min ([6]; antagonist 30 nM, 1 nM hGH-RH(1-29)NH2 at 90 min): 21 % of control; GH response (% of control) 120 min ([6]; antagonist 30 nM, 1 nM hGH-RH(1-29)NH2 at 120 min): 21 % of control; endocrine antagonistic potency: inhibition of the GH release stimulated by hGH-RH(1-29)NH2 (in words) ([6]; general statement, in vitro and in vivo): high endocrine antagonistic potencies |
| [CH3(CH2)6CO-Tyr^1, D-Arg^2, Phe(pCl)^6, Ala^8, His^9, Tyr(Et)^10, His^11, Orn^12, Abu^15, His^20, Orn^21, Nle^27, D-Arg^28, Har^29]hGH-RH(1-29)NH2 [Peptide 96] | 114 ± 15.5 ng/mL | 31% | 301 ± 65.2** mm^3 | 11.0 ± 0.87 days | 489 ± 114 mg | 77% | 66% | 56.2 ± 13.3 mm^3 | extremely high binding affinities | antitumor effect on PC-3 tumors (in words) ([2]; 5 μg/day): strongest antitumor effect |
| [CH3(CH2)6CO-Tyr^1, D-Arg^2, Phe(pCl)^6, Ala^8, His^9, Tyr(Et)^10, His^11, Orn^12, Abu^15, Orn^21, Nle^27, D-Arg^28, Har^29]hGH-RH(1-29)NH2 [Peptide 95] | 127 ± 17.5 ng/mL | 23% | 393 ± 79.8* mm^3 | 12.5 ± 1.80 days | 666 ± 131 mg | 69% | 54% | 60.9 ± 12.2 mm^3 | extremely high binding affinities |  |
| [HOOC(CH2)12CO-Tyr^1, D-Arg^2, Phe(pCl)^6, Amp^9, Tyr(Me)^10, Abu^15, Nle^27, D-Arg^28, Har^29]hGH-RH(1-29)NH2 [Peptide 72] |  |  |  |  |  |  |  |  | extremely high binding affinities | antiproliferative effect on H-69 tumors (in words) ([7]; 10 μg/day, single daily injections): strongest antiproliferative effect; Tumor volume (mm^3) Final ([7]; H-69, 10 μg/day s.c., 4 weeks): 308 ± 23* mm^3; Tumor volume Final (% inhibition) ([7]; H-69, 10 μg/day s.c., 4 weeks, vs control): (90%); Tumor volume (mm^3) Initial ([7]; H-69, at start of treatment): 81 ± 9 mm^3 |
